PubChem BioAssay (NCI)
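How tested: cells in 96-well plates exposed to compound for 48 hours at five concentrations. GI50 = concentration required for 50% inhibition of growth. The concentration for full growth arrest is given as TGI.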

How the values were obtained:
Assay in all cases: NCI-60 cell line screen, 48 h
SF-539 CNS = tested on: SF-539 CNS
HT29 colon = tested on: HT29 colon
NCI-H522 lung = tested on: NCI-H522 lung
TK-10 renal = tested on: TK-10 renal
786-0 renal = tested on: 786-0 renal
NCI-H226 lung = tested on: NCI-H226 lung
HOP-62 NSCLC = tested on: HOP-62 NSCLC
CAKI-1 renal = tested on: CAKI-1 renal
A498 renal = tested on: A498 renal
BT-549 breast = tested on: BT-549 breast

Row | SMILES | TGI (SF-539 CNS) | TGI (HT29 colon) | TGI (NCI-H522 lung) | TGI (TK-10 renal) | TGI (786-0 renal) | TGI (NCI-H226 lung) | TGI (HOP-62 NSCLC) | TGI (CAKI-1 renal) | TGI (A498 renal) | GI50 (SF-539 CNS) | GI50 (HT29 colon) | GI50 (NCI-H522 lung) | GI50 (TK-10 renal) | GI50 (786-0 renal) | GI50 (NCI-H226 lung) | GI50 (CAKI-1 renal) | GI50 (A498 renal) | GI50 (HOP-62 NSCLC) | GI50 (BT-549 breast) | TGI (BT-549 breast)
1 | NC(=O)C(=O)n1ncc(Cl)c(Cl)c1=O | 86.1 µM | 44.4 µM | 20.6 µM | 50.8 µM | 58.5 µM | > 100 µM | > 100 µM | 43.5 µM | > 100 µM | – | – | – | – | – | – | – | – | – | – | –
2 | CC(=O)OCCC(O[Si](c1ccccc1)(c1ccccc1)C(C)(C)C)C(C)(C)O (stereo not drawn) | 63.8 µM | 66.9 µM | 46.8 µM | > 100 µM | 77.2 µM | 36 µM | – | – | > 100 µM | – | – | – | – | – | – | – | – | – | – | –
3 | CC(=O)[CH-]C(=O)c1ccccc1.CC(=O)[CH-]C(=O)c1ccccc1.[CH2-]CCC.[CH2-]CCC.[Sn+4] | 2.77 µM | 3.39 µM | 0.327 µM | 2.31 µM | 2.28 µM | 2.28 µM | – | 1.22 µM | 3.74 µM | 1.36 µM | 1.73 µM | 0.157 µM | 1.06 µM | 1.09 µM | 0.526 µM | 0.322 µM | 1.66 µM | – | – | –
4 | O=[N+]([O-])C1C2C=CC(C2)[C@H]1c1ccc(Cl)cc1Cl (stereo partly drawn) | > 100 µM | 57.4 µM | – | > 100 µM | > 100 µM | > 100 µM | – | – | > 100 µM | – | – | – | – | – | – | – | – | – | – | –
5 | NC(=O)c1c[se]c(C2OC(COP(=O)(O)CP(=O)(O)OCC3OC(n4cnc5c(N)ncnc54)C(O)C3O)C(O)C2O)n1 (stereo not drawn) | > 100 µM | > 100 µM | > 100 µM | – | > 100 µM | > 100 µM | > 100 µM | > 100 µM | > 100 µM | – | – | – | – | – | – | – | – | – | – | –
6 | COc1ccc(C2NCCc3c2[nH]c2ccccc32)cc1 (stereo not drawn) | > 100 µM | > 100 µM | > 100 µM | > 100 µM | > 100 µM | > 100 µM | > 100 µM | – | – | – | – | – | – | – | – | – | – | – | – | –
7 | O=C1C(c2ccccc2)=C(c2ccccc2)[C@H](c2ccccc2)[C@]1(Cc1nnn(-c2ccc([N+](=O)[O-])cc2)c1N1CCOCC1)c1ccccc1 | > 37.5 µM | > 37.5 µM | – | > 37.5 µM | > 37.5 µM | – | > 37.5 µM | > 37.5 µM | > 37.5 µM | – | – | – | – | – | – | – | – | – | – | –
8 | CCC(=O)c1cc([N+](=O)[O-])c(Br)s1 | 16.8 µM | 3.29 µM | 2.2 µM | 28.1 µM | 26.6 µM | 35.6 µM | 4.54 µM | 3.41 µM | 31.3 µM | 3.9 µM | 1.52 µM | 0.904 µM | 13.8 µM | 12.6 µM | 18.7 µM | 1.66 µM | 17.3 µM | 2.25 µM | – | –
9 | Nc1ccn([C@@H]2C(F)=C(CO)[C@@H](O)[C@H]2O)c(=O)n1 | > 100 µM | > 100 µM | > 100 µM | > 100 µM | > 100 µM | > 100 µM | – | > 100 µM | – | 1.94 µM | 0.625 µM | 0.45 µM | 6.73 µM | 0.726 µM | 11.5 µM | 7.1 µM | – | – | 23.5 µM | > 100 µM
10 | COc1nc2c(c(O)c(C)c(=O)n2OC2OC(COC(C)=O)C(OC(C)=O)C(OC(C)=O)C2OC(C)=O)c(=O)n1C (stereo not drawn) | > 100 µM | > 100 µM | > 100 µM | > 100 µM | > 100 µM | > 100 µM | > 100 µM | – | – | – | – | – | – | – | – | – | – | – | – | –
11 | COc1ccc2[nH]c3c(=O)[nH]ncc3c2c1 | > 100 µM | > 100 µM | > 100 µM | > 100 µM | > 100 µM | > 100 µM | > 100 µM | – | > 100 µM | – | – | – | – | – | – | – | – | – | – | –
12 | COc1ccc(CC2=NCCc3cc(OC)c(OC)cc32)cc1Br | > 100 µM | > 100 µM | 86.6 µM | > 100 µM | > 100 µM | 50.9 µM | > 100 µM | 59.3 µM | 95.1 µM | – | – | – | – | – | – | – | – | – | – | –
13 | COc1ccc2c(c1)nc1n2C(c2ccc(F)cc2)SC1 (stereo not drawn) | – | – | 66.3 µM | > 100 µM | > 100 µM | 54.1 µM | > 100 µM | 74.5 µM | – | – | – | 18.1 µM | 22.8 µM | 60.8 µM | 19.1 µM | 26.2 µM | – | 79.7 µM | 17.1 µM | 42.1 µM
14 | COc1cc2cccc(N=Cc3c(Br)ccc(OC)c3OC(C)C)c2cc1OC | > 100 µM | 93.7 µM | > 100 µM | > 100 µM | 69.9 µM | – | > 100 µM | 70.2 µM | > 100 µM | – | – | – | – | – | – | – | – | – | – | –
15 | CC(C)(C)c1cc(CCC(=O)Nc2ccc(Cl)cc2Cl)nc(N)n1 | > 100 µM | > 100 µM | – | – | > 100 µM | > 100 µM | > 100 µM | > 100 µM | – | – | – | – | – | – | – | – | – | – | – | –
16 | Cc1ccccc1NC(=O)C(=O)CC(=O)c1ccc([N+](=O)[O-])cc1 | > 100 µM | > 100 µM | – | > 100 µM | > 100 µM | > 100 µM | > 100 µM | > 100 µM | – | – | – | – | – | – | – | – | – | – | – | –
